{"source": "ChEMBL document CHEMBL1201862", "about": "“PubChem BioAssay data set” (2004)", "key": {"[1]": {"molecular_target": "T1, Histone-lysine N-methyltransferase NSD2 (Homo sapiens, UniProt O96028)", "T1 sequence (O96028 whole entry)": "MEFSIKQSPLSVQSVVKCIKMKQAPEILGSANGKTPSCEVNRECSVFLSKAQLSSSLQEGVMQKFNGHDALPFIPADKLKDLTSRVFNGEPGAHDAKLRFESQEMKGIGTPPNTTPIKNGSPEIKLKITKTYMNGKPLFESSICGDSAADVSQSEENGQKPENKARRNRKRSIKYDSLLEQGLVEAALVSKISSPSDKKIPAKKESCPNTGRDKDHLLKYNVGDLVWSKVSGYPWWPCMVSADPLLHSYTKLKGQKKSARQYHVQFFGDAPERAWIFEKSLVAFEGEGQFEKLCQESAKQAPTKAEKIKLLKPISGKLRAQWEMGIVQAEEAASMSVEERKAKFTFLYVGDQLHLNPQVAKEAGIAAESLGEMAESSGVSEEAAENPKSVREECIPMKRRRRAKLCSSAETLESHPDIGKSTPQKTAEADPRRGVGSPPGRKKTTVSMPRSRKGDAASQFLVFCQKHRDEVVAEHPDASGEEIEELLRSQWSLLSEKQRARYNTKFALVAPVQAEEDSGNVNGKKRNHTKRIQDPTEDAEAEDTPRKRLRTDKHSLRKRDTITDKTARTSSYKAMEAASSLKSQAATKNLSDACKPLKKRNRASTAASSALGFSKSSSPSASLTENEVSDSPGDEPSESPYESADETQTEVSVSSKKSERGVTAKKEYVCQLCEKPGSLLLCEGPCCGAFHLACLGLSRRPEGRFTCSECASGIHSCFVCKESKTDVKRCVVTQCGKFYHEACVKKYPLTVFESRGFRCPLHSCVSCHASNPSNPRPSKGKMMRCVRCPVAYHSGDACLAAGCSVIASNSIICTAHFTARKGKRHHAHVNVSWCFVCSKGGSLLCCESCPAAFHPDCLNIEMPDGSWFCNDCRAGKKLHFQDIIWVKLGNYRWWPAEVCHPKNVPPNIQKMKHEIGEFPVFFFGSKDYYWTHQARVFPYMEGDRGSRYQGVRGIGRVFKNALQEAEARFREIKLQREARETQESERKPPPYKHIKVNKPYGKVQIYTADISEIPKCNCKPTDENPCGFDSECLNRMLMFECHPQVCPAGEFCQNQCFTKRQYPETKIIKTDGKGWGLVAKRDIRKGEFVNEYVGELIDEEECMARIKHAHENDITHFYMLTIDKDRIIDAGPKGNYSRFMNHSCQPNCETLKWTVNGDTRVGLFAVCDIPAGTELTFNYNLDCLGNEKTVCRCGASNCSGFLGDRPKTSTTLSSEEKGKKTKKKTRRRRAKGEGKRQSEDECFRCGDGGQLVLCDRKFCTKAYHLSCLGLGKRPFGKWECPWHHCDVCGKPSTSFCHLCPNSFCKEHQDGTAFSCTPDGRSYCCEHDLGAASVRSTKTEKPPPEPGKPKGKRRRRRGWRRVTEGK", "type": "biochemical"}, "[2]": {"molecular_target": "Luciferin 4-monooxygenase (Photinus pyralis, UniProt P08659)", "sequence (P08659 whole entry)": "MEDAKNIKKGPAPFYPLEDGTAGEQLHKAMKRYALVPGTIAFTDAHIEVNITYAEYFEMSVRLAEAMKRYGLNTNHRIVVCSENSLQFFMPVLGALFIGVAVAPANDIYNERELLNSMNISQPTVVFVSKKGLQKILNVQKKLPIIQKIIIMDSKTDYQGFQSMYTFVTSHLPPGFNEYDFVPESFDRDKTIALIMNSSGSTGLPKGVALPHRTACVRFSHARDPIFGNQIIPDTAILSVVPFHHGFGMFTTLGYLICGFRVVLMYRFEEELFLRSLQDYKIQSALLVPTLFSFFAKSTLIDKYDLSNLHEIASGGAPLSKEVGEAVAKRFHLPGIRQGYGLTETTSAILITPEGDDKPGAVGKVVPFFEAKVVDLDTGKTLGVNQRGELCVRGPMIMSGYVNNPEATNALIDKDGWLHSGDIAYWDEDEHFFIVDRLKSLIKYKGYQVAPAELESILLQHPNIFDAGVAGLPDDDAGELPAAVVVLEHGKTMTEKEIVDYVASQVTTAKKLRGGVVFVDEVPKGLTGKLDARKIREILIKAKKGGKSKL", "assay": "inhibition of purified Photinus pyralis luciferase – biochemical, luminescence, dose response (AID 1891)"}, "[3]": {"assay": "Luminescence Cell-Based Dose Confirmation HTS to Identify Inhibitors of Platelet Dense Granule Release. [Related pubchem assays: 1663 (Primary HTS), 1678 (Summary of Project)]", "type": "functional"}, "HEK293": {"system": "HEK293", "assay": "EBV LMP1 TES2 canonical NF-kB signalling blockers – cell-based, HEK293, luciferase, cherry-pick, dose response (AID 588343)", "type": "functional", "conditions": "Homo sapiens"}, "[4]": {"molecular_target": "26S proteasome non-ATPase regulatory subunit 14 (Homo sapiens, UniProt O00487)", "sequence (O00487 whole entry)": "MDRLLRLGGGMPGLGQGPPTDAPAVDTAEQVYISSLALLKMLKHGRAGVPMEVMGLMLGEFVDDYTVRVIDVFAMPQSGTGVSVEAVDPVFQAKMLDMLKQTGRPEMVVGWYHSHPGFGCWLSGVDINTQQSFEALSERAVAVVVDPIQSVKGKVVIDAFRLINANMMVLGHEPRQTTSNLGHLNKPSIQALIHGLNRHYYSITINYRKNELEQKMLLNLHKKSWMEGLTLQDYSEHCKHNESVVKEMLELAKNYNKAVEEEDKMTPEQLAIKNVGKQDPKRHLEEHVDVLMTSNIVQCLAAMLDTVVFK", "assay": "inhibition of proteasome subunit RPN11 – biochemical, fluorescence polarization, uHTS hits, confirmation (AID 602368)", "type": "functional"}, "[5]": {"molecular_target": "72 kDa type IV collagenase (Homo sapiens, UniProt P08253)", "sequence (P08253 whole entry)": "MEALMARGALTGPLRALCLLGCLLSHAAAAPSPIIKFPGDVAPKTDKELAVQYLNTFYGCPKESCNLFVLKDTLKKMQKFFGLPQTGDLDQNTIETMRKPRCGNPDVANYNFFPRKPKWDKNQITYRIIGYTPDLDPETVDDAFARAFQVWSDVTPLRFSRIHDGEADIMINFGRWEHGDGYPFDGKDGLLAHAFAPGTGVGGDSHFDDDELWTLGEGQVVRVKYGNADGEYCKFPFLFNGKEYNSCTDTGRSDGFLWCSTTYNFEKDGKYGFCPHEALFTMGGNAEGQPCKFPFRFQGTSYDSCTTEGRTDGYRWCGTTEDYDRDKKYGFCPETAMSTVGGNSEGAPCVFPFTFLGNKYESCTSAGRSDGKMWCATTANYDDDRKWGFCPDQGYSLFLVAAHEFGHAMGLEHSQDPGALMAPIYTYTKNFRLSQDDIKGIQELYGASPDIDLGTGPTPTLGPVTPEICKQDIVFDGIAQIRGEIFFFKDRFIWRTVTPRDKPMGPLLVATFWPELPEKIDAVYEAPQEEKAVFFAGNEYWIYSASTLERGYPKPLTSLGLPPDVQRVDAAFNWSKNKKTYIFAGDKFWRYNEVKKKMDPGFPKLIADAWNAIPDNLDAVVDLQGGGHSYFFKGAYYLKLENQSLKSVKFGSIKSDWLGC", "assay": "Dose Response validation of uHTS RPN11 inhibitor hits using a MMP-2 Fluorescence assay.", "type": "functional"}, "Prothrombin": {"molecular_target": "Prothrombin (Bos taurus, UniProt P00735)", "assay": "thrombin protease inhibitors – biochemical, fluorescence polarization, uHTS hits, dose response (AID 602369)", "type": "functional"}, "[6]": {"assay": "luciferase reporter signal suppression in cells – H4 neuroglioma cells, luminescence, dose response (AID 1990)", "type": "functional, cell-based"}, "[7]": {"assay": "Luminescence Cell-Based Dose Response HTS to Identify Inhibitors of 5'UTR Stem-Loop Driven Prion Protein mRNA Translation in H4 Neuroglioblastoma Cells. [Related pubchem assays: 1827 (Project Summary), 1813 (Primary HTS)]", "type": "functional"}, "[8]": {"assay": "alpha-synuclein stem-loop luciferase translation blockers – H4 neuroglioma cells, luminescence, confirmation (AID 1988)", "type": "functional, cell-based"}, "[9]": {"assay": "viability of PTEN-deleted HCT116 cells – cell-based, HCT116 PTEN knockout, dose response (AID 1047);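 note: cells exposed to compound for 60 hours before readout; potency for loss of cell viability measured by luminescence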", "type": "functional"}, "[10]": {"assay": "viability of HCT116 lacking mutant beta-catenin – cell-based, human colon tumor, dose response (AID 1045);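 note: cells exposed to compound for 60 hours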", "type": "functional"}, "[11]": {"assay": "Luminescence Cell-Based Dose Response to Identify Activators of 5'UTR Stem-Loop Driven Prion Protein mRNA Translation in H4-C Neuroglioblastoma Cells. [Related pubchem assays: 1829 (Project Summary), 1814 (Primary HTS)]", "type": "functional"}, "[12]": {"assay": "Luminescence Cell-Based Dose Response HTS to Identify Activators of Luciferase Translation or Activity in H4 […] Cells. [Related pubchem assays: 1829 (Project Summary), 1814 (Primary HTS)]", "type": "functional"}, "H4": {"system": "H4", "assay": "Luminescence Cell-Based Dose Response HTS to Identify Activators of 5'UTR Stem-Loop Driven Prion Protein mRNA Translation in H4 Neuroglioblastoma Cells. [Related pubchem assays: 1829 (Project Summary), 1814 (Primary HTS)]", "type": "functional", "conditions": "Homo sapiens"}, "[13]": {"assay": "Luminescence Cell-Based Dose Response to Identify Activators of Luciferase Translation or Activity in H4-C Neuroglioblastoma Cells. [Related pubchem assays: 1829 (Project Summary), 1814 (Primary HTS)]", "type": "functional"}, "[14]": {"assay": "Luminescence Cell-Based Dose Confirmation to Identify Activators of 5'UTR Stem-Loop Driven Alpha-Synuclein mRNA Translation in H4 Neuroglioblastoma Cells. [Related pubchem assays: 1829 (Project Summary), 1814 (Primary HTS)]", "type": "functional"}, "Fatty acid synthase [15]": {"molecular_target": "T2, Fatty acid synthase (Homo sapiens, UniProt P49327)", "T2 sequence (P49327 whole entry)": "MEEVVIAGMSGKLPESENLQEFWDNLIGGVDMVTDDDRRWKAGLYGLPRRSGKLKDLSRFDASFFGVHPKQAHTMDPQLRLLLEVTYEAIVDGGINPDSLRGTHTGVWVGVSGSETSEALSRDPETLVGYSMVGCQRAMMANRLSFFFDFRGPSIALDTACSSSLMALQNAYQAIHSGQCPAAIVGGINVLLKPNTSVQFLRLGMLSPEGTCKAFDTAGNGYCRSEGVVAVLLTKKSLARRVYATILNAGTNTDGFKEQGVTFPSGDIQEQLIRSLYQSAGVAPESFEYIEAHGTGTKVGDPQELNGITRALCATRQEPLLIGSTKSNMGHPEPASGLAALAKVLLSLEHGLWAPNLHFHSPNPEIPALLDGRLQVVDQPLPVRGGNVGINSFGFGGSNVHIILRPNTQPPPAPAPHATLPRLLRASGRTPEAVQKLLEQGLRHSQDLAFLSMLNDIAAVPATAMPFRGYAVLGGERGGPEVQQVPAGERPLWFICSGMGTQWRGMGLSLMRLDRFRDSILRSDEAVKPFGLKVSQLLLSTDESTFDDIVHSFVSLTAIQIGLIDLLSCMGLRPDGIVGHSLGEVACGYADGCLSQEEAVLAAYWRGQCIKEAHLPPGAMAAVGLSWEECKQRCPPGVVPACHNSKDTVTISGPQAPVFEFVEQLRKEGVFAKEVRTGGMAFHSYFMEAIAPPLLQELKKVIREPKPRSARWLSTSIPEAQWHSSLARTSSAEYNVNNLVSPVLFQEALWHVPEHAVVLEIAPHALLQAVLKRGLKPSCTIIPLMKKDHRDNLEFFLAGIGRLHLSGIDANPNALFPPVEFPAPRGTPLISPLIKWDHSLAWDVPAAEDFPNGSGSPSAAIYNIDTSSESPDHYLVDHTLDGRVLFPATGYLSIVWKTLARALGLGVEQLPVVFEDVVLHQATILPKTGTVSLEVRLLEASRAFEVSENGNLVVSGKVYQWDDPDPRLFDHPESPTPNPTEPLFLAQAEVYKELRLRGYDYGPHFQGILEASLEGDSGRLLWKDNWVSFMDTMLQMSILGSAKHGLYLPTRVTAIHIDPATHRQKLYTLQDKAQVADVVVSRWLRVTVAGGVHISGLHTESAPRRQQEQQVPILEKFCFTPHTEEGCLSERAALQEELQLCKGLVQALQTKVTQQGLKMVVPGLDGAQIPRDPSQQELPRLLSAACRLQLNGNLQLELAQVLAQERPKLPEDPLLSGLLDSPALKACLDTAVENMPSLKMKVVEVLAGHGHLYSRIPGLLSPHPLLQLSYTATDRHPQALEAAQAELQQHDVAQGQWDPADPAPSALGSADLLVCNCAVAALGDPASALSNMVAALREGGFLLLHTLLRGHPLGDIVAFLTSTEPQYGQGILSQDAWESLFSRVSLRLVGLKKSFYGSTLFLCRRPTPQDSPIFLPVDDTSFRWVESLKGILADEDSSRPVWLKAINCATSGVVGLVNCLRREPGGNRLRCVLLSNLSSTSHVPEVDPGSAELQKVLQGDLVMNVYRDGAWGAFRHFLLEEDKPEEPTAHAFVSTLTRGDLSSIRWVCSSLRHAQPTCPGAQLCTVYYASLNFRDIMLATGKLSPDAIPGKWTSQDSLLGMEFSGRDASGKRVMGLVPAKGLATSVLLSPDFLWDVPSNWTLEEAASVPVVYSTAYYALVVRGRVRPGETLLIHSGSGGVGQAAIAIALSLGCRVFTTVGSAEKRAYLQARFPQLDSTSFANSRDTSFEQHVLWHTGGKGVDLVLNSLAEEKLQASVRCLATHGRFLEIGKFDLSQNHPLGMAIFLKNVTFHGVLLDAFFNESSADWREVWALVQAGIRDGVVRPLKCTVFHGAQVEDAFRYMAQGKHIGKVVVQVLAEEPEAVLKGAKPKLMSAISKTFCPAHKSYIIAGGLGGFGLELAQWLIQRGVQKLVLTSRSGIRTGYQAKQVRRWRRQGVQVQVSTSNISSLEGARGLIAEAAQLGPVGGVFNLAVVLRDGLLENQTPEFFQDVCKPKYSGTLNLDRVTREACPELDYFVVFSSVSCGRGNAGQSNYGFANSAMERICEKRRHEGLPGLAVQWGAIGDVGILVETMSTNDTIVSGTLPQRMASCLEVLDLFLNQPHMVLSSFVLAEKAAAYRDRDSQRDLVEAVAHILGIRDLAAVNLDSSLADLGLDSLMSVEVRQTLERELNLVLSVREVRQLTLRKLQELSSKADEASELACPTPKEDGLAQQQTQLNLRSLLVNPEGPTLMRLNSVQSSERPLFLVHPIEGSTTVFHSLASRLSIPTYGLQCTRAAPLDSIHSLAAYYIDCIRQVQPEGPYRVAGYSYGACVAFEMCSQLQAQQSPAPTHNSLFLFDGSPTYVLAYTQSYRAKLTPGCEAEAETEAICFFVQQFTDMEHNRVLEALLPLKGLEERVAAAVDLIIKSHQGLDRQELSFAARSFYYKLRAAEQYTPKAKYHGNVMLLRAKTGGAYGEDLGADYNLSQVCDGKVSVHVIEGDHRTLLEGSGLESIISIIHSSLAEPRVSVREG", "assay": "inhibition of human FAS-TE enzyme activity – biochemical, endpoint fluorescence intensity, uHTS hits, dose response (AID 624327);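 note: fluorescence from hydrolysis of an O-methyl fluorescein acyl ester substrate by the enzyme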", "type": "functional"}, "Fatty acid synthase [16]": {"molecular_target": "T2, Fatty acid synthase", "assay": "inhibition of human FAS-TE enzyme activity – biochemical, kinetic fluorescence intensity, dose response (AID 624326);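 note: rate of fluorescence rise from hydrolysis of a fluorogenic O-methyl fluorescein ester substrate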", "type": "functional"}, "[17]": {"molecular_target": "Induced myeloid leukemia cell differentiation protein Mcl-1 (Homo sapiens, UniProt Q07820)", "sequence (Q07820 whole entry)": "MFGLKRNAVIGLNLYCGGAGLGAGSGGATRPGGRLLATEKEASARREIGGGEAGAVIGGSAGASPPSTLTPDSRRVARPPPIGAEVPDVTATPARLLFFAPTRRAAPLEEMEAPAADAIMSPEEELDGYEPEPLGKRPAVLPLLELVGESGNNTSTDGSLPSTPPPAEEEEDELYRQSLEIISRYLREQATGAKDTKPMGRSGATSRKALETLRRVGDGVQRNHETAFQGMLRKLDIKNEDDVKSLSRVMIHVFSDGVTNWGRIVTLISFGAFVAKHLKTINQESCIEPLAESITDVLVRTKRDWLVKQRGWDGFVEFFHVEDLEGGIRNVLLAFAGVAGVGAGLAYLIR", "type": "functional"}, "[18]": {"molecular_target": "T3, Low molecular weight phosphotyrosine protein phosphatase (Homo sapiens, UniProt P24666)", "T3 sequence (P24666 whole entry)": "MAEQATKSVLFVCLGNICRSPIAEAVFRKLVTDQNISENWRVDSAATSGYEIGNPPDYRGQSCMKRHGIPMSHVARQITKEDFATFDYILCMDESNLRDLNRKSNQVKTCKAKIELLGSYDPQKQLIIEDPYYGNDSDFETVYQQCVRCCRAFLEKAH", "type": "functional", "conditions": "read-out: IC50_Mean"}, "INS1": {"system": "INS1", "assay": "INS-1E survival protection against cytokine death – cell-based, luminescence, retest, dose response (AID 449756);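 note: cell death triggered by IL-1 beta plus TNF-alpha plus IFN-gamma mixture; protective hits raise ATP signal compared with cytokine alone wells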", "type": "functional", "conditions": "Rattus norvegicus"}, "[19]": {"molecular_target": "DNA dC->dU-editing enzyme APOBEC-3A (Homo sapiens, UniProt P31941)", "sequence (P31941 whole entry)": "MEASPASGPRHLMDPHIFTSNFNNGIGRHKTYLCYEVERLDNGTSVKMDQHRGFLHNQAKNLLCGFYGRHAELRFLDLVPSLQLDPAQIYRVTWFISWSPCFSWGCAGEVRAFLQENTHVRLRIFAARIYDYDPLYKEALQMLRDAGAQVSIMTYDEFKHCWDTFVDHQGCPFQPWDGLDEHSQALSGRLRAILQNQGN", "assay": "A3A deaminase inhibition for selectivity – biochemical, dose response (AID 504722)", "type": "functional"}, "[20]": {"molecular_target": "DNA dC->dU-editing enzyme APOBEC-3G (Homo sapiens, UniProt Q9HC16)", "sequence (Q9HC16 whole entry)": "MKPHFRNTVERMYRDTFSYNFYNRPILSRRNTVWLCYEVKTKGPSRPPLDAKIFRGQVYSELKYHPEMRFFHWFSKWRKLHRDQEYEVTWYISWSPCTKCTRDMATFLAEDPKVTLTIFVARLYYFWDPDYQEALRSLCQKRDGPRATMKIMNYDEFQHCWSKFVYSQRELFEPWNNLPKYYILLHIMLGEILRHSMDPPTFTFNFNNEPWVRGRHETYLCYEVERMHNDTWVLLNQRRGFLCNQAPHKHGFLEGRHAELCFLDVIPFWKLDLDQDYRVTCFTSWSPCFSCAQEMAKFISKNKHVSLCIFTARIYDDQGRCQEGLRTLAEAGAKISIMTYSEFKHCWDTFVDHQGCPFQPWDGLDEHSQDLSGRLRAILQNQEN", "assay": "Dose Response confirmation of small molecule APOBEC3G DNA Deaminase Inhibitors via a fluorescence-based single-stranded DNA deaminase assay. [Related pubchem assays (depositor defined):AID493012, AID493028]", "type": "functional"}}, "note": "Active and inactive are the calls of the source."}
{"smiles": "CCC(C)NCCCOc1cc(Cl)ccc1Cl", "note": "(stereo not drawn)", "values": [{"measurement": "AC50", "setting": "[1]", "result": "> 20 µM (inactive)"}]}
{"smiles": "COc1ccc(C(=O)/N=c2\\nc3ccccn3s2)cc1", "values": [{"measurement": "EC50", "setting": "[2]", "result": "1.07 µM (active)"}, {"measurement": "EC50", "setting": "[3]", "result": "5.24 µM (active)"}, {"measurement": "AC50", "setting": "HEK293", "result": "0.768 µM (active)"}]}
{"smiles": "COc1cccc2cc(C(=O)Nc3ccc(F)cc3)/c(=N/c3ccc(C(=O)O)cc3)oc12", "values": [{"measurement": "IC50", "setting": "[4]", "result": "48.2 µM (active)"}, {"measurement": "IC50", "setting": "[5]", "result": "> 100 µM (inactive)"}, {"measurement": "IC50", "setting": "Prothrombin", "result": "21.7 µM (active)"}]}
{"smiles": "NC(=O)c1sc2nc3c(c(-c4cccs4)c2c1N)CCCC3", "values": [{"measurement": "EC50", "setting": "[6]", "result": "< 0.1 µM (active)"}, {"measurement": "EC50", "setting": "[7]", "result": "0.125 µM (active)"}, {"measurement": "EC50", "setting": "[8]", "result": "16.1 µM (active)"}, {"measurement": "EC50", "setting": "[9]", "result": "36.5 µM (active)"}, {"measurement": "EC50", "setting": "[10]", "result": "118 µM (active)"}]}
{"smiles": "CC(=O)NC1=C(N2CC2C)C(=O)C(NC(C)=O)=C(N2CC2C)C1=O", "note": "(stereo not drawn)", "values": [{"measurement": "AC50", "setting": "[1]", "result": "10.2 µM (active)"}]}
{"smiles": "O=C(NC(=S)Nc1nc2c(s1)CCCC2)c1ccccc1", "values": [{"measurement": "EC50", "setting": "[11]", "result": "0.313 µM (active)"}, {"measurement": "EC50", "setting": "[12]", "result": "0.143 µM (active)"}, {"measurement": "EC50", "setting": "H4", "result": "< 0.1 µM (active)"}, {"measurement": "EC50", "setting": "[13]", "result": "0.341 µM (active)"}, {"measurement": "EC50", "setting": "[14]", "result": "0.32 µM (active)"}]}
{"smiles": "O=C1C=Cc2cccc3ccc(O)c1c23", "values": [{"measurement": "AC50", "setting": "HEK293", "result": "18.1 µM (active)"}]}
{"smiles": "CC(C)(C)c1ccc(C(=O)OCCNC(=O)c2c(Cl)nc3ccccn23)cc1", "values": [{"measurement": "IC50", "setting": "Fatty acid synthase [15]", "result": "5.51 µM (active)"}, {"measurement": "IC50", "setting": "Fatty acid synthase [16]", "result": "4.36 µM (active)"}]}
{"smiles": "NC1=NC(=O)/C(=C/c2cn(CCC(=O)O)nc2-c2ccc(Cl)cc2)S1", "values": [{"measurement": "IC50", "setting": "[17]", "result": "4.92 µM (active)"}, {"measurement": "IC50", "setting": "[4]", "result": "44.7 µM (active)"}, {"measurement": "IC50", "setting": "[5]", "result": "> 100 µM (inactive)"}, {"measurement": "IC50", "setting": "Prothrombin", "result": "40.4 µM (active)"}]}
{"smiles": "CC(C)COc1ccc(C(=O)N/C(=C\\c2cccc([N+](=O)[O-])c2)C(=O)O)cc1", "values": [{"measurement": "IC50", "setting": "Fatty acid synthase [15]", "result": "8.63 µM (active)"}, {"measurement": "IC50", "setting": "Fatty acid synthase [16]", "result": "9.1 µM (active)"}]}
{"smiles": "Cc1cc(N2CCN(c3nc(-c4ccc([N+](=O)[O-])cc4)cs3)CC2)c2ccccc2n1", "values": [{"measurement": "IC50", "setting": "[18]", "result": "4.77 µM (active)"}]}
{"smiles": "Cc1cc(C)cc(NC(=O)/C(C#N)=C/c2cn(CC(=O)NCc3ccco3)c3ccccc23)c1", "values": [{"measurement": "EC50", "setting": "[9]", "result": "8.2 µM (active)"}, {"measurement": "EC50", "setting": "[10]", "result": "10.6 µM (active)"}, {"measurement": "AC50", "setting": "INS1", "result": "3.92 µM (active)"}]}
{"smiles": "Nn1c(C2COc3ccccc3O2)n[nH]c1=S", "note": "(stereo not drawn)", "values": [{"measurement": "IC50", "setting": "[19]", "result": "> 100 µM (inactive)"}, {"measurement": "IC50", "setting": "[20]", "result": "5.09 µM (active)"}]}
